Data from US11980669B2, “Capped and uncapped antibody cysteines, and their use in antibody-drug conjugation” (PFIZER INC., priority 2015, dated 2024).

Tested on: stable CHO cells
Experiment: Cell viability and cell counts of stable CHO cells cultured with capping reagent in the medium
Assay type: cell-based
Conditions: 0.5 mM DTNB in CD-CHO medium, 72 hrs
Experimental: Ellman's reagent, 5,5′-dithiobis-(2-nitrobeoic acid) (DTNB) was examined as a capping agent to add thionitrobenzoate (TNB). (DTNB is commonly used for assaying free thiol content in proteins. This reagent cannot disrupt disulfide bond but can react with free Cys. It has been used to treat partially-reduced antibody materials to generate four free Cys for drug conjugation.) A CHO cell line stably expressing the cysteine mutant antibody was grown to 4×10e6/ml in CD-CHO medium, then switched to fresh CD-CHO medium, fresh CD-CHO medium with 0.5 mM DTNB, or the triple-low medium as a control. Cells were cultured in these conditions for 72 hrs, cell viability was measured and conditioned medium was harvested. […] Protein expression in the DTNB-containing medium was also 5-fold lower than those in CD-CHO. Antibody purification from ProA column and protein migration in SDS-PAGE from all three culture conditions materials were nearly identical, as shown in FIG. 5A. All three samples in SEC analysis show monomer species, with very little aggregation.
19.8 mM MTFB, dissolved in DMSO, was added to 50 ml cell culture at a final concentration of 0.25 mM for 24 hr. Cell viability was measured and conditioned medium was harvested. […] Antibody HAB08L443C at such condition was subsequently purified by a 1 ml-ProA column (FIG. 12B). […]

`O=C(O)c1cc(SSc2ccc([N+](=O)[O-])c(C(=O)O)c2)ccc1[N+](=O)[O-]` [DTNB, 5,5′-dithiobis-(2-nitrobeoic acid)] showed a Cell viability of 40%.
